According to PubChem BioAssay AID256 (DTP/NCI, 2004):
“And” between values parts separate entries of the source, which are not always exact repeats. Equal entries are not always repeated. Toxic doses and inconclusive results are not listed.

System: CD2F1 mice, L1210 leukemia ip, survival T/C
Test: NCI In Vivo Anticancer Drug Screen. Data for tumor model L1210 Leukemia (intraperitoneal) in CD2F1 (CDF1) mice
Settings: higher = longer survival
Procedure, shortened: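 Ratio T/C, where T is the treated-group value and C the vehicle-dosed control value, from mice implanted with a transplantable tumor.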

[1] = endpoint: mean survival time, dose: 100.0 mg/kg/injection, schedule: Q01DX001 (ip), vehicle: saline with Tween-80
[2] = endpoint: mean survival time, dose: 100.0 mg/kg/injection, schedule: Q01DX009 (ip), vehicle: saline with Tween-80
[3] = endpoint: mean survival time, dose: 200.0 mg/kg/injection, schedule: Q01DX001 (ip), vehicle: saline with Tween-80
[4] = endpoint: mean survival time, dose: 200.0 mg/kg/injection, schedule: Q01DX009 (ip), vehicle: saline with Tween-80
[5] = endpoint: mean survival time, dose: 400.0 mg/kg/injection, schedule: Q01DX001 (ip), vehicle: saline with Tween-80
[6] = endpoint: mean survival time, dose: 100.0 mg/kg/injection, schedule: Q01DX009 (ip), vehicle: Klucel (hydroxypropylcellulose) (HPC)
[7] = endpoint: mean survival time, dose: 100.0 mg/kg/injection, schedule: Q04DX003 (ip), vehicle: saline with Tween-80
[8] = endpoint: mean survival time, dose: 200.0 mg/kg/injection, schedule: Q04DX003 (ip), vehicle: saline with Tween-80
[9] = endpoint: mean survival time, dose: 400.0 mg/kg/injection, schedule: Q01DX009 (ip), vehicle: saline with Tween-80
[10] = endpoint: mean survival time, dose: 400.0 mg/kg/injection, schedule: Q04DX003 (ip), vehicle: saline with Tween-80

With `CCC12C[N+]3([O-])CCc4c([nH]c5ccccc45)C(C(=O)OC)(c4cc5c(cc4OC)N(C)C4C(O)(C(=O)OC)C(OC(C)=O)C6(CC)C=CCN7CCC54C76)CC(C3)C1O2` (centres undefined) the T/C (endpoint: median survival time, dose: 0.62 mg/kg/injection, schedule: Q01DX009 (ip), vehicle: water) was 98 % of control, the T/C (endpoint: median survival time, dose: 1.25 mg/kg/injection, schedule: Q01DX009 (ip), vehicle: water) was 103 % of control and the T/C (endpoint: median survival time, dose: 2.5 mg/kg/injection, schedule: Q01DX009 (ip), vehicle: water) was 98 % of control and 105 % of control and 107 % of control. The T/C (endpoint: median survival time, dose: 5.0 mg/kg/injection, schedule: Q01DX009 (ip), vehicle: water) was 101 % of control and 105 % of control and 110 % of control, the T/C (endpoint: median survival time, dose: 10.0 mg/kg/injection, schedule: Q01DX009 (ip), vehicle: water) was 115 % of control and 117 % of control and the T/C (endpoint: median survival time, dose: 20.0 mg/kg/injection, schedule: Q01DX009 (ip), vehicle: water) was 117 % of control and 119 % of control and 112 % of control.
For `Cc1ccc(-c2nc(SCc3ccc(Cl)cc3)[nH]c(=O)c2CCO)cc1`, the T/C (endpoint: mean survival time, dose: 100.0 mg/kg/injection, schedule: Q04DX003 (ip), vehicle: Klucel (hydroxypropylcellulose) (HPC)) was 96 % of control and the T/C (endpoint: mean survival time, dose: 200.0 mg/kg/injection, schedule: Q04DX003 (ip), vehicle: Klucel (hydroxypropylcellulose) (HPC)) was 87 % of control.
With `C#CCSc1c(Cl)c(Cl)c(Cl)c(Cl)c1Cl` the T/C (endpoint: mean survival time, dose: 100.0 mg/kg/injection, schedule: Q04DX002 (ip), vehicle: saline with Tween-80) was 87 % of control, the T/C (endpoint: mean survival time, dose: 200.0 mg/kg/injection, schedule: Q04DX002 (ip), vehicle: saline with Tween-80) was 95 % of control and the T/C (endpoint: mean survival time, dose: 400.0 mg/kg/injection, schedule: Q04DX002 (ip), vehicle: saline with Tween-80) was 87 % of control.
`O=C(O)C1C2CC3C(C2)C31` (centres undefined) was tested, and the T/C (endpoint: mean survival time, dose: 100.0 mg/kg/injection, schedule: Q01DX009 (ip), vehicle: other) was 96 % of control and the T/C (endpoint: mean survival time, dose: 200.0 mg/kg/injection, schedule: Q01DX009 (ip), vehicle: other) was 104 % of control.
For `ClCC(Cl)CN(Cc1ccccc1)Cc1ccccc1` (centres undefined), the T/C [1] was 102 % of control, the T/C [2] was 102 % of control and the T/C [3] was 93 % of control. For the same compound, the T/C [4] was 104 % of control and the T/C [5] was 98 % of control.
`Cn1c(-c2ccccc2N=NN2CCCCC2)nc(=N)c2ccccc21` was tested, and the T/C (endpoint: mean survival time, dose: 6.25 mg/kg/injection, schedule: Q01DX005 (ip), vehicle: water) was 95 % of control and the T/C (endpoint: mean survival time, dose: 12.5 mg/kg/injection, schedule: Q01DX005 (ip), vehicle: water) was 95 % of control.
`OCC1OC(n2cnc3c(NCCc4ccccc4)ncnc32)C(O)C1O` (centres undefined) was tested, and the T/C (endpoint: mean survival time, dose: 12.5 mg/kg/injection, schedule: Q01DX005 (ip), vehicle: other) was 101 % of control, the T/C (endpoint: mean survival time, dose: 25.0 mg/kg/injection, schedule: Q01DX005 (ip), vehicle: other) was 110 % of control and the T/C (endpoint: mean survival time, dose: 50.0 mg/kg/injection, schedule: Q01DX005 (ip), vehicle: other) was 92 % of control.
In the case of `c1ccc(N/N=C2/c3ccccc3CC23OC3c2ccccc2)cc1` (centres undefined), the T/C (endpoint: mean survival time, dose: 25.0 mg/kg/injection, schedule: Q01DX009 (ip), vehicle: Klucel (hydroxypropylcellulose) (HPC)) is reported as 97 % of control, the T/C (endpoint: mean survival time, dose: 50.0 mg/kg/injection, schedule: Q01DX009 (ip), vehicle: Klucel (hydroxypropylcellulose) (HPC)) is reported as 97 % of control and the T/C [6] is reported as 91 % of control. The T/C (endpoint: mean survival time, dose: 200.0 mg/kg/injection, schedule: Q01DX009 (ip), vehicle: Klucel (hydroxypropylcellulose) (HPC)) was 97 % of control and the T/C (endpoint: mean survival time, dose: 400.0 mg/kg/injection, schedule: Q01DX009 (ip), vehicle: Klucel (hydroxypropylcellulose) (HPC)) was 97 % of control.
For `CS(=O)(=O)OCCCN(CCCOS(C)(=O)=O)c1ccc(C=Nc2ccc(-c3csc(COc4ccc(Cl)cc4Cl)n3)cc2)cc1`, the T/C [1] was 86 % of control, the T/C [2] was 93 % of control and the T/C [3] was 86 % of control. For the same compound, the T/C [5] was 89 % of control.
For `O=[N+]([O-])/C=C/c1cc2ccccc2[nH]1`, the T/C (endpoint: mean survival time, dose: 100.0 mg/kg/injection, schedule: Q04DX003 (ip), vehicle: acetone) was 94 % of control, the T/C (endpoint: mean survival time, dose: 200.0 mg/kg/injection, schedule: Q04DX003 (ip), vehicle: acetone) was 94 % of control and the T/C (endpoint: mean survival time, dose: 400.0 mg/kg/injection, schedule: Q04DX003 (ip), vehicle: acetone) was 105 % of control.
`COC(=O)c1cc2ccccc2o1` was tested, and the T/C [2] was 100 % of control, the T/C [7] was 108 % of control and the T/C [4] was 100 % of control. For the same compound, the T/C [8] was 108 % of control, the T/C [9] was 105 % of control and the T/C [10] was 94 % of control.
With `Cc1ncc(C=C(C(=O)O)C(=O)O)n1Cc1ccccc1` the T/C [1] was 98 % of control, the T/C [3] was 104 % of control and the T/C [5] was 104 % of control.
With `CC(=O)C=C(C)[O][Tl]` the T/C (endpoint: mean survival time, dose: 75.0 mg/kg/injection, schedule: Q01DX001 (ip), vehicle: saline) was 102 % of control.
`CC[n+]1ccc(Nc2ccc(NC(=O)c3ccc(C(=O)Nc4ccc(Nc5cc[n+](CC)c(N)n5)cc4)cc3)cc2)nc1N` was tested, and the T/C (endpoint: mean survival time, dose: 12.5 mg/kg/injection, schedule: Q01DX009 (ip), vehicle: saline) was 172 % of control, the T/C (endpoint: mean survival time, dose: 25.0 mg/kg/injection, schedule: Q01DX009 (ip), vehicle: saline) was 325 % of control and the T/C (endpoint: mean survival time, dose: 40.0 mg/kg/injection, schedule: Q01DX009 (ip), vehicle: saline) was 265 % of control. For the same compound, the T/C (endpoint: mean survival time, dose: 50.0 mg/kg/injection, schedule: Q01DX009 (ip), vehicle: saline) was 275 % of control, the T/C (endpoint: mean survival time, dose: 59.0 mg/kg/injection, schedule: Q01DX009 (ip), vehicle: saline) was 262 % of control and the T/C (endpoint: mean survival time, dose: 89.0 mg/kg/injection, schedule: Q01DX009 (ip), vehicle: saline) was 212 % of control. The T/C (endpoint: mean survival time, dose: 150.0 mg/kg/injection, schedule: Q01DX001 (ip), vehicle: Klucel (hydroxypropylcellulose) (HPC)) was 167 % of control, the T/C (endpoint: mean survival time, dose: 200.0 mg/kg/injection, schedule: Q01DX009 (ip), vehicle: saline) was 118 % of control and the T/C (endpoint: mean survival time, dose: 225.0 mg/kg/injection, schedule: Q01DX001 (ip), vehicle: Klucel (hydroxypropylcellulose) (HPC)) was 315 % of control.
For `NC(N)=NCc1ccccc1`, the T/C (endpoint: mean survival time, dose: 10.0 mg/kg/injection, schedule: Q04DX003 (ip), vehicle: saline) was 106 % of control, the T/C (endpoint: mean survival time, dose: 12.5 mg/kg/injection, schedule: Q04DX003 (ip), vehicle: saline) was 100 % of control and the T/C (endpoint: mean survival time, dose: 20.0 mg/kg/injection, schedule: Q04DX003 (ip), vehicle: saline) was 103 % of control. The T/C (endpoint: mean survival time, dose: 25.0 mg/kg/injection, schedule: Q04DX003 (ip), vehicle: saline) was 96 % of control, the T/C (endpoint: mean survival time, dose: 40.0 mg/kg/injection, schedule: Q04DX003 (ip), vehicle: saline) was 100 % of control and the T/C (endpoint: mean survival time, dose: 50.0 mg/kg/injection, schedule: Q04DX003 (ip), vehicle: saline) was 97 % of control and 100 % of control.
`C#CCN(C)CCO` was tested, and the T/C (endpoint: mean survival time, dose: 100.0 mg/kg/injection, schedule: Q01DX009 (ip), vehicle: acetone) was 103 % of control, the T/C (endpoint: mean survival time, dose: 200.0 mg/kg/injection, schedule: Q01DX009 (ip), vehicle: acetone) was 97 % of control and the T/C (endpoint: mean survival time, dose: 400.0 mg/kg/injection, schedule: Q01DX009 (ip), vehicle: acetone) was 100 % of control.
In the case of `Oc1ccc(/C=N/N=C/c2ccc(O)c(O)c2)cc1O`, the T/C (endpoint: median survival time, dose: 25.0 mg/kg/injection, schedule: Q01DX009 (ip), vehicle: saline with Tween-80) is reported as 108 % of control, the T/C (endpoint: median survival time, dose: 50.0 mg/kg/injection, schedule: Q01DX009 (ip), vehicle: saline with Tween-80) is reported as 110 % of control and the T/C (endpoint: median survival time, dose: 100.0 mg/kg/injection, schedule: Q01DX009 (ip), vehicle: saline with Tween-80) is reported as 112 % of control.
`O=[N+]([O-])c1cc([N+](=O)[O-])c2nc3ccccn3c2c1` was tested, and the T/C [7] was 101 % of control, the T/C [8] was 101 % of control and the T/C [10] was 101 % of control.
`O=C1C=C(Nc2nc(O)cc(=O)[nH]2)c2ccccc2C1=O` was tested, and the T/C [6] was 97 % of control.
In the case of `Cc1ccccc1OCc1ccccc1`, the T/C (endpoint: mean survival time, dose: 50.0 mg/kg/injection, schedule: Q04DX003 (ip), vehicle: saline with Tween-80) is reported as 104 % of control, the T/C [7] is reported as 98 % of control and 101 % of control and the T/C [8] is reported as 102 % of control and 104 % of control. For the same compound, the T/C [10] was 94 % of control.
`CC(C)OC(=O)CC#N` was tested, and the T/C [7] was 96 % of control, the T/C [8] was 105 % of control and the T/C [10] was 96 % of control.
For `O=C(O)c1ccc(C(=O)O)o1.[NH-]C1CCCCC1[NH-].[Pt+2]`, the T/C (endpoint: mean survival time, dose: 1.25 mg/kg/injection, schedule: Q04DX003 (ip), vehicle: dextrose) was 122 % of control and 102 % of control, the T/C (endpoint: mean survival time, dose: 2.5 mg/kg/injection, schedule: Q04DX003 (ip), vehicle: dextrose) was 111 % of control and 112 % of control and the T/C (endpoint: mean survival time, dose: 5.0 mg/kg/injection, schedule: Q04DX003 (ip), vehicle: dextrose) was 117 % of control. The T/C (endpoint: mean survival time, dose: 20.0 mg/kg/injection, schedule: Q04DX003 (ip), vehicle: dextrose) was 183 % of control and the T/C (endpoint: mean survival time, dose: 40.0 mg/kg/injection, schedule: Q04DX003 (ip), vehicle: dextrose) was 94 % of control.
With `N#Cc1cc(Cl)c(OCc2ccccc2)c(Cl)c1` the T/C [1] was 87 % of control and the T/C [5] was 101 % of control.
In the case of `O=[N+]([O-])c1cc(Cl)c(Cl)cc1Cl`, the T/C [2] is reported as 92 % of control, the T/C [7] is reported as 106 % of control and the T/C [4] is reported as 104 % of control. For the same compound, the T/C [8] was 101 % of control and the T/C [10] was 118 % of control.
`OC(c1ccccc1)(c1ccccc1)c1ccccc1Cl` was tested, and the T/C [2] was 98 % of control, the T/C [4] was 101 % of control and the T/C [9] was 102 % of control.
For `CCC(C)CC(C)C1=NC(C)(C)CC(C)O1` (centres undefined), the T/C [1] was 104 % of control and the T/C [3] was 90 % of control.
